Data set [1] has as its system HUVEC cells. The data set can be described thus: Morphogenesis on matrigel (capillary-like structures). Particulars: 24 hours' pre-treatment, FIG. 4. In kind it is cell-based, human. As to the method: A 24-well plate was coated with 300 μl/well of liquid matrigel (10 mg/mL) at 4° C., using cold pipettes and avoiding bubbles. The plate was then incubated for one hour at 37° C., until the matrigel polymerised. The HUVEC cells, pre-treated with the different inhibitors, were resuspended in 1 mL of complete medium and then plated in the different wells. The serum-free medium was used as negative control (CTRL−). After 6 hours' incubation, the organisation of the cells in capillary-like structures was examined with an inverted microscope equipped with a camera for the acquisition of images and a digital analysis system.

Data set [2] has as its system HUVEC cells. Put plainly: Apoptosis assay (Annexin V / 7-AAD cytofluorimetry). In kind it is cell-based, human. Particulars: 10 μM, 24 hours, FIG. 5. As to the method:
(§1) The HUVEC cells (1×10^5) were plated in six-well plates and left to adhere for 18 hours. The next day, the cells were pre-treated with inhibitors LR6 and LR7 (10 μM) in the presence of complete medium. After 24 hours, the cells were detached, washed with PBS and transferred to tubes for cytofluorimetric analysis. The cells were pelletted and resuspended in Annexin V-binding buffer (0.01M HEPES (4-(2-hydroxyethyl)-1-piperazineethanesulphonic acid) (pH 7.4); 0.14 M NaCl; 2.5 mM CaCl2. Fluorescein isothiocyanate Annexin V and 7-amino-actinomycin D were added to the tubes, and the cells were incubated for 15 minutes at room temperature in the dark. The cells were then washed in PBS, the supernatant was removed and the cells resuspended in […] of binding buffer. The samples were analysed on a FACSCanto cytofluorimeter (BD Biosciences), and analysed with FACSDiva Software 6.1.2.

Experiment in data set [3]: as above
It is filed as cell-based, human. The following applies: human, HUVEC cells, FIG. 5, read-out: percentage of viability. As to the method:
as §1

Data set [4] relates to HUVEC cells. Put plainly: Migration (chemotaxis) assay, Boyden chambers. In kind it is cell-based, human. The following applies: for reduction of endothelial cell migration: 10 μM, HUVEC pre-treated for 24 hours, values standardised on control, FIG. 7; for inhibition of migration: 24 hours' pre-treatment, 10 μM and 20 μM, *P<0.05, FIG. 2. As to the method: The chemotaxis assay was conducted with Boyden chambers [Albini A, Iwamoto Y, Kleinman H K, Martin G R, Aaronson S A, Kozlowski J M, McEwan R N. A rapid in vitro assay for quantitating the invasive potential of tumor cells. Cancer Res. 1987 Jun. 15; 47(12):3239-45; Albini A, Benelli R. The chemoinvasion assay: a method to assess tumor and endothelial cell invasion and its modulation. Nat Protoc. 2007; 2(3):504-11]. The HUVEC cells (5×10^4) were pre-treated for 24 hours with the inhibitors, resuspended in serum-free medium, and plated in the upper compartment of the Boyden chamber. The complete medium was added in the lower compartment of the chamber, and used as chemoattractant. The two chambers were separated by polycarbonate filters ([…]) coated with collagen (50 μg/mL). After 6 hours' incubation at 37° C., the filters were recovered, the cells present on the upper surface of the filter were mechanically removed, and those on the lower surface were fixed in absolute ethanol and stained with DAPI. The cells were then counted in eight consecutive fields on each filter by fluorescence microscopy.

In data set [5] the test system is HUVEC cells. The data set can be described thus: Invasion (chemoinvasion) assay, Boyden chambers, matrigel. In kind it is cell-based, human. Particulars: for invasion in the presence of serum (FBS): 24 hours' pre-treatment, even at 10 μM, *P<0.05, FIG. 3; for reduction of endothelial cell invasion: 10 μM, HUVEC pre-treated for 24 hours, values standardised on control, FIG. 6. As to the method: The chemoinvasion assay was conducted with Boyden chambers [Albini A, Iwamoto Y, Kleinman H K, Martin G R, Aaronson S A, Kozlowski J M, McEwan R N. A rapid in vitro assay for quantitating the invasive potential of tumor cells. Cancer Res. 1987 Jun. 15; 47(12):3239-45; Albini A, Benelli R. The chemoinvasion assay: a method to assess tumor and endothelial cell invasion and its modulation. Nat Protoc. 2007; 2(3):504-11]. The HUVEC cells (5×10^4) were pre-treated for 24 hours with the inhibitors, resuspended in serum-free medium, and plated in the upper compartment of the chamber. The complete medium was added in the lower compartment of the chamber, and used as chemoattractant. The 12 m polycarbonate filters were coated with matrigel (1 mg/mL). After 18 hours' incubation, the cells in the upper compartment of the chamber were mechanically removed, while those adhering to the lower surface of the filter were fixed in absolute ethanol and stained with DAPI. The cells were counted double-blind in eight consecutive fields by fluorescence microscopy.

Data set [6] deals with HUVEC cells. Put plainly: MTT colorimetric viability assay. In kind it is cell-based, human. Particulars: for inhibition of cell growth: 20 μM, after 24 hours' treatment, FIG. 1. As to the method: The viability of the HUVEC cells was evaluated with the MTT colorimetric assay (3-(4,5-dimethylthiazol-2-yl)-2,5-diphenyltetrazolium bromide). The cells (1000/well) were plated in complete medium in 96-well plates, and after complete adherence the medium was replaced with a new medium with or without the various inhibitors at different concentrations. The plates were processed at different incubation times (24, 48, 72 and 96 hours), and the absorbance was measured at 570 nm.

In data set [7] the test system is fibrosarcoma cells. The following applies: 10 μM; cited from earlier work.
Data set [8] concerns hepatocytes. The following applies: high concentrations (exceeding 100 μM); cited from earlier work.
The test system of data set [9] is endothelial cells. Particulars: cited from earlier work.
The test system of data set [10] is prostate cancer cell lines. Particulars: 40 μM; cited from earlier work.
Data set [11] concerns hepatocarcinoma cell lines. The following applies: 25 μM; cited from earlier work.
The test system of data set [12] is endothelial cells. Particulars: cited from earlier work. This is another data set of the same source.
In data set [13] the test system is endothelial cells. The following applies: cited from earlier work. This is another data set of the same source.
Data set [14] addresses MMP-9 (Homo sapiens, UniProt P14780). Particulars: 10 μM; cited from earlier work.
Data set [15] addresses T1, MMP-2 (Homo sapiens, UniProt P08253).
T1 sequence (P08253 110-660): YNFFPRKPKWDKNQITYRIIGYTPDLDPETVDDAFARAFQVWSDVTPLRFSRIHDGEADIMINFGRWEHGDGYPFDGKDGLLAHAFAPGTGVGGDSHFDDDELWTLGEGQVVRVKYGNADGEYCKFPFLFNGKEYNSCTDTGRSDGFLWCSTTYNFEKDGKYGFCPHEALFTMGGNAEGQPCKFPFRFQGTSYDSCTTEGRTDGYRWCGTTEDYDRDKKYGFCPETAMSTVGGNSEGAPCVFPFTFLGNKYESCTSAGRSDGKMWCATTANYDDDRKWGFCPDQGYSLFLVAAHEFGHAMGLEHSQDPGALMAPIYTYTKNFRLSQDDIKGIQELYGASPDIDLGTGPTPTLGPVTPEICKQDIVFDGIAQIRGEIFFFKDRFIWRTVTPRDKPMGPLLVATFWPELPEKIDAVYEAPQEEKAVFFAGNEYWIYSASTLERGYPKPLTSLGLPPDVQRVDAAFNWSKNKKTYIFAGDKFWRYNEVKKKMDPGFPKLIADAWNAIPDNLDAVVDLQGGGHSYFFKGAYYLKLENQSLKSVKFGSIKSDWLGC
The following applies: 10 μM; cited from earlier work.

Data set [16] relates to fibrosarcoma cells. Particulars: cited from earlier work.

Like-named read-outs stand apart in the source and are kept apart here.

Chain of MMP-9 (P14780 94-707, species assumed): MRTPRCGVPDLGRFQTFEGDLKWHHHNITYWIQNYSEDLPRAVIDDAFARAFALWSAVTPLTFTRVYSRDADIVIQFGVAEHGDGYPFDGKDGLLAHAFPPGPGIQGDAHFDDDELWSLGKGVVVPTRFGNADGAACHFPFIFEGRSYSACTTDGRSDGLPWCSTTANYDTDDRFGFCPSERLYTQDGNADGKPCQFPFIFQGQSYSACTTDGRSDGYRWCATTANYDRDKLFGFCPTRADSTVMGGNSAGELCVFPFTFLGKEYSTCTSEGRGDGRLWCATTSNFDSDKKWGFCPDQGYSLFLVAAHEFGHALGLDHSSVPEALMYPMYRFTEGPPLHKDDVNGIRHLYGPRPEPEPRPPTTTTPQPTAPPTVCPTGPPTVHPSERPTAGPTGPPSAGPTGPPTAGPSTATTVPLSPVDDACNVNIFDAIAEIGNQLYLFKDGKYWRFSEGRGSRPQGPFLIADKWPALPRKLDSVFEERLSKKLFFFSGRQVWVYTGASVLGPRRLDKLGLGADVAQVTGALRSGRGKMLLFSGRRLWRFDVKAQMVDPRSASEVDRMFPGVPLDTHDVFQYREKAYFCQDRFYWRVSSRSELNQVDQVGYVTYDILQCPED

`COc1cc(O)c(CC=C(C)C)c(O)c1C(=O)/C=C/c1ccc(F)cc1` [LR6, (E)-1-[2,4-dihydroxy-6-methoxy-3-(3-methyl-but-2-enyl)prenyl]-3-(4-fluorophenyl)-prop-2-en-1-one]: the FBS-dependent morphogenesis entry in data set [1] is listed as “interferes with FBS-dependent morphogenesis”. Also, in data set [2], the apoptosis entry was “absence of apoptosis”. Further, the viability at 24 h, 10 µM in data set [3] is about 90%. Also, in data set [4], the “reduction of endothelial cell migration” value was about 75% and the inhibition of migration entry was “Significant inhibition of migration”. For the same compound, the “invasion in the presence of serum (FBS)” value in data set [5] is reported as “significantly reduces invasion”. For the same compound, in data set [6] (10 μM, after 72 and 96 hours' treatment), the cell proliferation entry is reported as “able to reduce cell proliferation”. Moreover, the “inhibition of cell growth” value in data set [6] is “Significant inhibition of cell growth”.
On to `COCOc1cc(OC)c(C(=O)/C=C/c2ccc(F)cc2)c(O)c1CC=C(C)C` [LR7, (E)-3-(4-fluorophenyl)-1-[2-hydroxy-6-methoxy-4-(methoxymethyloxy)-3-(3-methyl-but-2-enyl]-phenyl)prop-2-en-1-one], for which the FBS-dependent morphogenesis result in data set [1] is reported as “interferes with FBS-dependent morphogenesis”. In data set [2], the apoptosis result is reported as “absence of apoptosis”. In data set [3], the viability at 24 h, 10 µM was about 90%. In data set [4], the inhibition of migration result is on record as “Significant inhibition of migration”. In addition, in data set [5], the “invasion in the presence of serum (FBS)” value is reported as “significantly reduces invasion”. Further, the “inhibition of cell growth” value in data set [6] is recorded as “Significant inhibition of cell growth”. The cytostatic activity result in data set [6] (10 and 20 μM, after 48 hours' incubation) is reported as “exhibited cytostatic activity”.
For `COc1cc(O)c(CC=C(C)C)c(O)c1C(=O)/C=C/c1ccc(F)c(F)c1` [LR16, (E)-3-(3,4-difluorophenyl)-1-[2,4-dihydroxy-6-methoxy-3-(3-methyl-but-2-enyl)-phenyl]-prop-2-en-1-one], the “reduction of endothelial cell invasion” value in [5] is recorded as “about 80%”.
Still for that read-out and setting: with `COCOc1cc(OC)c(C(=O)/C=C/c2ccc(F)cc2F)c(OCOC)c1CC=C(C)C` [LR17, (E)-3-(2,4-difluoro-phenyl)-1-[6-methoxy-2,4-dimethoxymethyloxy-3-(3-methyl-but-2-enyl)phenyl]-prop-2-en-1-one] the figure was about 75%.
For `COc1cc(O)c(CC=C(C)C)c(O)c1C(=O)/C=C/c1ccc(F)cc1F` [LR19, (E)-3-(2,4-difluorophenyl)-1-[2,4-dihydroxy-6-methoxy-3-(3-methyl-but-2-enyl)-phenyl]-prop-2-en-1-one], the “reduction of endothelial cell migration” value in data set [4] is “about 80%”.
In the case of `COc1cc(O)c(CC=C(C)C)c(O)c1C(=O)/C=C/c1ccc(O)cc1` [XN, Xanthohumol], the “invasion by fibrosarcoma cells” value in data set [7] is reported as “inhibits invasion”. Further, the “viability of the hepatocytes” value in data set [8] is reported as “no effect on the viability”. Further, in [9] (200 μM), the toxicity entry is on record as “no toxicity was observed”. Moreover, in data set [9], the “concentration interval in which effects on morphogenesis are evident” value is 5 to 10 µM. In data set [10], the “growth of prostate cancer cell lines” value is “inhibitory effect”. In addition, in data set [11], the apoptosis entry is “induces apoptosis”. Further, the “reduction of endothelial cell migration” value in data set [4] was “about 50%”. The “reduction of endothelial cell invasion” value in data set [5] was “about 60%”. Moreover, the “cytotoxic activity against activated endothelial cells” value in [12] (10 μM) was “potent cytotoxic activity”. Moreover, the “concentration at which cell death is observed” value in data set [12] is “exceeding 25 μM”. Further, the “effect on endothelial cells at lower concentrations” value in [12] (concentrations lower than 10 μM, even after long exposure times) is given as “does not exhibit any significant effect”. The results for the “chemotaxis of the endothelial cells and invasion in vitro” value in [13] (5 μM) and in data set [13] (10 μM) were “inhibits chemotaxis” and “complete inhibition”, respectively. Also, in data set [14], the “activity of MMP-9” value is reported as “inhibits”. Also, in data set [15], the “activity of MMP-2” value was “strongly inhibited”.
For the compound `COc1cc2c(c(O)c1C(=O)/C=C/c1ccc(O)cc1)C=CC(C)(C)O2` [XNC, xanthohumol C], the cytotoxic effect entry in data set [16] is on record as “loss of cytotoxic activity”.
As for O-methylxanthohumol ether SEM [XN-SEM], the cytotoxic effect result in [16] was “no cytotoxic effect”.

Source of the values: patent US9617213B2, “Synthetic analogues of xanthohumol” (UNIVERSITA' DI PISA, priority 2013, dated 2017).
